From US11998595B2, “Telomerase polypeptide vaccine for treating cancer” (Ultimovacs AS, priority 2010, dated 2024)
Entries after “also recorded” stand apart in the source; their conditions may differ.

Assays:
[1] = system: T cells (patient PBMCs); test: T-cell proliferation assay (3H-thymidine) of patient PBMC/T cells with hTERT peptides or transfected DC; format: cell-based, human
Protocol: FIG. 1 is a bar graph summarising hTERT T-cell responses detected in pancreas cancer patient vaccinated with DC transfected with hTERT mRNA. In samples from various time points throughout a vaccination schedule, T-cell responses against 24 overlapping hTERT 15-mer peptides were detected. Proliferation in response to peptide-loaded PBMC was measured by ^3H-thymidine incorporation. A stimulation index of >2 is considered an immune response.
Peripheral blood mononuclear cells (PBMCs) were obtained prior to the four standard vaccinations, after 5 weeks and after 12 weeks. PBMCs were also obtained before each monthly booster vaccination. The PBMCs were isolated and frozen as previously described (Kyte et al, 2005). Thawed PBMCs were stimulated once in vitro with tDCs (not with mockDCs) and cultured and then tested in T cell proliferation assays (^3H Thymidine) as previously described (Kyte et al 2006). The T cells were tested in triplicates. Irradiated tDCs and mock-transfected DC controls (mockDCs) were used or PBMC with or without hTERT peptide as APCs. Negative controls with T cells only were included.
PBMCs from various time points were stimulated with an overlapping hTERT 15-mer peptide library or a 30-mer hTERT peptide, all from ProImmune and then tested in proliferation assays as above using irradiated PBMCs as APCs as described in (Bernhardt et al 2006).
T-cell responses to a hTERT peptide library (including the polypeptides from Table 1) were determined for T-cells from 5 patients in addition to the patients reported in Examples 1 and 2. The methods were the same as previously described in Example 1 or in Bernhardt et al 2006. In brief, PBMCs from various time points during vaccination were stimulated with the overlapping hTERT peptide library prior to testing for specific T-cell responses in proliferation assays.
The proliferative T-cell responses of each patient to a series of peptides were then determined as explained in Example 1. The results are tabulated in Table 5 and are shown graphically in FIG. 14 in which the peptide designations are referenced in Table 6 (the results for peptides 726 and GV1001 are shown only for comparison).
Four patients who were clinical non-responders following a lung cancer diagnosis and a GV1001 (SEQ ID NO. 10) peptide vaccination were studied. These patients were all stage IV lung cancer patients vaccinated with GV1001. […] The proliferative T-cell responses of each patient to a series of peptides were determined in the same manner as in Example 1, at one time point. The peak response of each patient during the study period to peptide GV1001 is also shown which confirms that each patient responded immunologically to GV1001 vaccination.
(§1) Six patients who were clinical non-responders following a melanoma cancer diagnosis and a GV1001 peptide (SEQ ID NO. 10) vaccination were studied. These patients were all stage IV melanoma patients and included in the same GV1001 vaccination trial as melanoma patients P7 and P8 who were long term survivors (see Example 6). […] Five of the patients also experienced progressive disease and one patient, designated Melanoma P3, experienced some stabilization of the disease but still had short survival. The proliferative T-cell responses of each patient to a series of peptides were determined in the same manner as in Example 1, at one time point. The peak response of each patient during the study period to peptide GV1001 is also shown which confirms that each patient responded immunologically to GV1001 vaccination.

[2] = system: stage IV melanoma patients; test: Clinical course of vaccinated melanoma patients; format: in vivo, human; design: key to Clinical response: PD = Progressive disease; SD = Stable disease; PR = Partial response; CR = Complete response
Protocol: A comparison of the patients studied in Example 4 was carried out. In brief, seven patients were identified as clinical responders following a cancer diagnosis and vaccination with an hTERT vaccine. These patients were identified based on a combination of prolonged survival and clinical response. The clinical response could either be stable disease (SD), partial response (PR) or complete response (CR). The vaccinated melanoma patients were diagnosed with stage IV at the time of inclusion in the clinical trial, but had no brain metastases. Lung cancer patient P5 was diagnosed with stage IV, inoperable lung cancer and colon cancer patient P1 with late stage inoperable colon cancer. Lung cancer patient P6 was a stage IV lung cancer patient with a 12-week life expectancy. Pancreas cancer patient P1 had relapsed, inoperable pancreas cancer and a life expectancy of 8-10 months. Four of the patients (designated Melanoma P7-P8, Lung cancer P5 and Colon cancer P1) had each been vaccinated with the peptide GV1001 (SEQ ID NO. 10). The fifth patient (designated Lung cancer P6) and the sixth patient (designated Pancreas cancer 1) had been vaccinated with dendritic cells transfected with mRNA encoding hTERT. The seventh patient, Melanoma patient P9, had not been vaccinated at the time of the study and instead developed a spontaneous response following development of the cancer. (An eighth and final patient was also identified as a clinical responder but samples from this patient were not available for study.)
as §1
The patients were classed as either clinical responders or clinical non-responders based on their clinical response which included stable disease (SD), tumour regression (PR or CR) and unexpectedly long survival time. Both clinical responders and clinical non-responders were selected from the same or similar vaccination trials.

For “EARPALLTSRLRFIPK (listed as Homo sapiens) [GV1001]”, the SI of response ([1]; all patients of Example 6) was over 2, the “immunological response of patients” value ([1]; all patients of Examples 1 to 8) was “All patients responded immunologically” and the “proliferative T-cell response (SI)” value ([1]; patient Colon ca P1, GV1001-vaccinated, clinical responder) was 105.1. For the same sequence, the “proliferative T-cell response (SI)” value ([1]; patient Lung ca P1, GV1001-vaccinated, clinical non-responder, one time point) was 0.9, the “Peak response GV1001” value ([1]; patient Lung ca P1, peak during study period) was 60.95 and the “proliferative T-cell response (SI)” value ([1]; patient Lung ca P2, GV1001-vaccinated, clinical non-responder, one time point) was 122.8. For the same sequence, the “Peak response GV1001” value ([1]; patient Lung ca P2, peak during study period) was 122.8, the “proliferative T-cell response (SI)” value ([1]; patient Lung ca P3, GV1001-vaccinated, clinical non-responder, one time point) was 1.4 and the “Peak response GV1001” value ([1]; patient Lung ca P3, peak during study period) was 161.6. The “proliferative T-cell response (SI)” value ([1]; patient Lung ca P4, GV1001-vaccinated, clinical non-responder, one time point) was 1.2, the “Peak response GV1001” value ([1]; patient Lung ca P4, peak during study period) was 13.3 and the “proliferative T-cell response (SI)” value ([1]; patient Lung ca P5, GV1001-vaccinated, clinical responder) was 20.1. For the same sequence, the “proliferative T-cell response (SI)” value ([1]; patient Lung ca P6, DC/hTERT mRNA-vaccinated, clinical responder, high background) was 7.1, the “proliferative T-cell response (SI)” value ([1]; patient Melanoma P1, GV1001-vaccinated, clinical non-responder, one time point) was 1.4 and the “Peak response GV1001” value ([1]; patient Melanoma P1, peak during study period) was 26.0. The “proliferative T-cell response (SI)” value ([1]; patient Melanoma P2, GV1001-vaccinated, clinical non-responder, one time point) was 0.9, the “Peak response GV1001” value ([1]; patient Melanoma P2, peak during study period) was 38.7 and the “proliferative T-cell response (SI)” value ([1]; patient Melanoma P3, GV1001-vaccinated, clinical non-responder, one time point) was 1.8. The “Peak response GV1001” value ([1]; patient Melanoma P3, peak during study period) was 3.7, the “proliferative T-cell response (SI)” value ([1]; patient Melanoma P4, GV1001-vaccinated, clinical non-responder, one time point) was 1.2 and the “Peak response GV1001” value ([1]; patient Melanoma P4, peak during study period) was 10.7. For the same sequence, the “proliferative T-cell response (SI)” value ([1]; patient Melanoma P5, GV1001-vaccinated, clinical non-responder, one time point) was 25.2, the “Peak response GV1001” value ([1]; patient Melanoma P5, peak during study period) was 35.4 and the “proliferative T-cell response (SI)” value ([1]; patient Melanoma P6, GV1001-vaccinated, clinical non-responder, one time point) was 21.4. For the same sequence, the “Peak response GV1001” value ([1]; patient Melanoma P6, peak during study period) was 122.0, the “proliferative T-cell response (SI)” value ([1]; patient Melanoma P7, GV1001-vaccinated, clinical responder) was 76.5 and the “proliferative T-cell response (SI)” value ([1]; patient Melanoma P8, GV1001-vaccinated, clinical responder) was 13.2. The “proliferative T-cell response (SI)” value ([1]; patient Melanoma P9, non-vaccinated, spontaneous response) was 1.7, the “proliferative T-cell response (SI)” value ([1]; patient Pancreas ca P1, DC/hTERT mRNA-vaccinated, clinical responder, high background) was 2.2 and the “Clinical Responder” value ([2]; patient Melanoma P1) was “No”. The Clinical response ([2]; patient Melanoma P1) was “PD”, the “Survival (Months)” value ([2]; patient Melanoma P1) was 10 Months and the “Vaccine-specific T cell response at time-point tested” value (from here on “Vaccine-specific T cell response”) ([2]; patient Melanoma P1) was “Yes”. The “Clinical Responder” value ([2]; patient Melanoma P2) was “No”, the Clinical response ([2]; patient Melanoma P2) was “PD” and the “Survival (Months)” value ([2]; patient Melanoma P2) was 9 Months. The “Vaccine-specific T cell response” value ([2]; patient Melanoma P2) was “Yes”, the “Clinical Responder” value ([2]; patient Melanoma P3) was “No” and the Clinical response ([2]; patient Melanoma P3) was “SD”. The “Survival (Months)” value ([2]; patient Melanoma P3) was 10 Months, the “Vaccine-specific T cell response” value ([2]; patient Melanoma P3) was “Yes” and the “Clinical Responder” value ([2]; patient Melanoma P4) was “No”. The Clinical response ([2]; patient Melanoma P4) was “PD”, the “Survival (Months)” value ([2]; patient Melanoma P4) was 8 Months and the “Vaccine-specific T cell response” value ([2]; patient Melanoma P4) was “Yes”. For the same sequence, the “Clinical Responder” value ([2]; patient Melanoma P5) was “No”, the Clinical response ([2]; patient Melanoma P5) was “PD” and the “Survival (Months)” value ([2]; patient Melanoma P5) was 12 Months. The “Vaccine-specific T cell response” value ([2]; patient Melanoma P5) was “Yes”, the “Clinical Responder” value ([2]; patient Melanoma P6) was “No” and the Clinical response ([2]; patient Melanoma P6) was “PD”. The “Survival (Months)” value ([2]; patient Melanoma P6) was 8 Months, the “Vaccine-specific T cell response” value ([2]; patient Melanoma P6) was “Yes” and the “Clinical Responder” value ([2]; patient Melanoma P7) was “Yes”. For the same sequence, the Clinical response ([2]; patient Melanoma P7) was “alive, PR”, the “Vaccine-specific T cell response” value ([2]; patient Melanoma P7) was “Yes” and the “Survival (Months)” value ([2]; patient Melanoma P7, + signifies that the patient is still alive) was 65+ Months. The “Clinical Responder” value ([2]; patient Melanoma P8) was “Yes”, the “Survival (Months)” value ([2]; patient Melanoma P8) was 21 Months and the “Vaccine-specific T cell response” value ([2]; patient Melanoma P8) was “Yes”. The Clinical response ([2]; patient Melanoma P8, TTP = time to progression) was “increased; also recorded: TTP, PR”.
